Experimental data: patent publication US20240374624A1, “NOVEL USE OF AT LEAST A HUMAN MILK OLIGOSACCHARIDE” (DSM IP ASSETS B.V., priority 2021, published 2024)

Test system: C. acnes (ATCC reference 11827)
Assay: Cutibacterium acnes Time-Kill Assay
Assay type: cell-based
Conditions: for Log-step reduction (16 h) / Log-step reduction (24 h): reduction compared to initial log cfu/ml of 5.38, n=3; for effect on C. acnes (reduction or growth promotion, in words): summary of the time-kill study
Procedure: Cutibacterium acnes Time-Kill Assay:
Seven different HMOs were screened for their potential anti-microbial activities against C. acnes (ATCC reference 11827). The action of ingredients and combinations thereof is assessed through a miniaturized method performed in liquid media in 96 deepwell plates format. The inhibition of the growth of C. acnes is compared to the same strain growth in corresponding optimal media.
The different ingredients are mixed at two different concentrations in growth medium (final volume 2 mL) in deepwell plates (n=3 for each concentration).
Analysis controls are prepared and used identically to samples: • A growth control of C. acnes in the corresponding culture medium; • A […] consisting of Phenoxyethanol prepared at 0.5% (v/v) directly in the culture medium.
Then, samples are contaminated with C. acnes, inoculum at final concentration of 3.7×10^5 CFU/mL, and incubated at 37° C.±2.5° C. during 24 h. At each defined timepoint (i.e. 30 min, 2 h, 4 h, 16 h and 24 h), a pick-up of the contaminated samples is performed (20 L) after gentle agitation.
To perform the counting, aliquots of the contaminated samples are serially diluted (decimal dilutions) in culture medium in 96-well plates with triphenyltetrazolium and incubated at 37° C.±2.5° C. during 48 h. After 48 h at the optimal growing conditions, the last dilution showing a pink color (triphenyltetrazolium) or turbidity indicates the contamination rate and allow the determination of the corresponding microbial population.
The results of the Time-Kill study are presented in the table below data are shown as log-step reduction compared to initial log cfu/ml of 5.38.

[1] = 0.10 wt.-% ingredient in growth medium
[2] = 0.5 wt.-% ingredient in growth medium

For 2′-fucosyllactose [2′FL], which “Log-step reduction (16 h)” value [1] is on record?
Its value is 0.5 log-step.

What about the “Log-step reduction (24 h)” value [1] of the same compound?
The value was 0.5 log-step.

And the “Log-step reduction (16 h)” value [2]?
Its value is 1.5 log-step.

And the “Log-step reduction (24 h)” value [2]?
Its value is 1.5 log-step.

What about the “effect on C. acnes (reduction or growth promotion, in words)” value of the same compound?
The value was “still provided a reduction of C. acnes”.

What does the source list for “3-fucosyllactose [3FL (Ref), reference compound]”?
Log-step reduction (16 h) [2]: −0.4 log-step; Log-step reduction (24 h) [2]: −0.4 log-step; effect on C. acnes (reduction or growth promotion, in words): promoted C. acnes growth

For `CC(=O)N[C@H]1[C@H](O[C@H]2[C@@H](O)[C@@H](CO)O[C@@H](O[C@H]3[C@H](O)[C@@H](O)C(O)O[C@@H]3CO)[C@@H]2O)O[C@H](CO)[C@@H](O[C@@H]2O[C@H](CO)[C@H](O)[C@H](O)[C@H]2O)[C@@H]1O` (mixture of isomers) [LNnT (Ref), lacto-N-neotetraose, reference compound], which “Log-step reduction (16 h)” value [1] is on record?
The value was −0.4 log-step.

And the “Log-step reduction (24 h)” value [1]?
The value was −0.4 log-step.

What about the “Log-step reduction (16 h)” value [2] of the same compound?
The value was −0.5 log-step.

What about the “Log-step reduction (24 h)” value [2] of the same compound?
Its value is −0.5 log-step.

What about the “effect on C. acnes (reduction or growth promotion, in words)” value of the same compound?
The value was “promoted C. acnes growth”.

For `CC(=O)N[C@H]1[C@H](O[C@H]2[C@@H](O)[C@@H](CO)O[C@@H](O[C@H]3[C@H](O)[C@@H](O)C(O)O[C@@H]3CO)[C@@H]2O)O[C@H](CO)[C@@H](O)[C@@H]1O[C@@H]1O[C@H](CO)[C@H](O)[C@H](O)[C@H]1O` (stereo partly drawn) [LNT, lacto-N-tetraose], which “Log-step reduction (16 h)” value [1] is on record?
Its value is 0.5 log-step.

What about the “Log-step reduction (24 h)” value [1] of the same compound?
The value was 0.5 log-step.

What about the “Log-step reduction (16 h)” value [2] of the same compound?
The value was 0.5 log-step.

And the “Log-step reduction (24 h)” value [2]?
The value was 0.5 log-step.

What about the “effect on C. acnes (reduction or growth promotion, in words)” value of the same compound?
Its value is “still provided a reduction of C. acnes”.
